Assay results published in ChEMBL document CHEMBL1129603, “Synthesis and biological activity of metabolites of the antidiabetic, antihyperglycemic agent pioglitazone” (1996).

Organism: Mus musculus
Assay: Compound was evaluated for Antihyperglycemic activity in KKAy mice, glucose level for the treated group (T) over the anti-hyperglycaemic activity
Assay type: functional
For `O=C(O)Cc1ccc(CCOc2ccc(CC3SC(=O)NC3=O)cc2)nc1` (stereo unspecified), the T/C was 0.91.
`CC(O)c1ccc(CCOc2ccc(CC3SC(=O)NC3=O)cc2)nc1` (stereo unspecified) [LERIGLITAZONE] showed a T/C of 0.74.
Work on `CC(=O)c1ccc(CCOc2ccc(CC3SC(=O)NC3=O)cc2)nc1` (stereo unspecified) yielded a T/C of 0.74.
Compound `CCc1ccc(CCOc2ccc(CC3SC(=O)NC3=O)cc2)nc1` (stereo unspecified) [PIOGLITAZONE] has a T/C of 0.49.
Work on `CCc1ccc(C(=O)COc2ccc(CC3SC(=O)NC3=O)cc2)nc1` (stereo unspecified) [MITOGLITAZONE] yielded a T/C of 0.39.
Work on `CCc1ccc(C(O)COc2ccc(CC3SC(=O)NC3=O)cc2)nc1` (stereo unspecified) yielded a T/C of 0.78.
